Results on 2 molecules are retold here after patent US12538923B2, “Herbicidal compositions comprising imazethapyr” (BASF SE, priority 2024, dated 2026).

Holding throughout (type): in vivo
In assay [1] the test system is Amaranthus hybridus (AMACH). The experiment in a line: Post-emergence field trial, herbicidal activity on AMACH. The protocol:
(§1) In the examples below, using the method of S. R. Colby (1967) “Calculating synergistic and antagonistic responses of herbicide combinations”, Weeds 15, p. 22ff., the value E, which is expected if the activity of the individual active compounds is only additive, was calculated:
(§2) [formula] • where • X=percent activity using active herbicide A at an application rate a; • Y=percent activity using active herbicide B (e.g. imazethapyr) at an application rate b; • E=expected activity (in %) by A+B at application rates a+b.
(§3) If the value found experimentally is higher than the value E calculated according to Colby, a synergistic effect is present.
(§4) On field test sites, natural weed infestation or seeded weeds were treated post-emergence of the weeds.
(§5) In the field trials, the weeds were treated as indicated below.
(§6) In the following experiments, the herbicidal activity for the individual herbicidal compositions (solo and mixture applications) was assessed at the indicated days after treatment (DAT). The assessments for the damage on undesired weeds caused by the composition was carried out using a scale from 0 to 100%, compared to the untreated control plants. Here, 0 means no damage and 100 means complete destruction of the plants.
Herbicide A-1 (342 g/I) and imazethapyr-ammonium were, together with addition of 0.25 l/ha Dash® MSO Max as adjuvant, formulated in water as distribution medium (water volume 200 l/ha) and sprayed with commercial flat fan nozzles.

Assay [2] deals with Digitaria horizontalis (DIGHO). The experiment in a line: Post-emergence field trial, herbicidal activity on DIGHO. The settings on record: Table 2.5, 21 DAT, growth stage 24. The protocol:
as §1, §2, §3, §4, §5
(§7) In the following experiments, the herbicidal activity for the individual herbicidal compositions (solo and mixture applications) was assessed at the indicated days after treatment (DAT). The assessments for the damage on undesired weeds caused by the composition was carried out using a scale from 0 to 100%, compared to the untreated control plants. Here, 0 means no damage and 100 means complete destruction of the plants. […]

Another assay has as its system Eleusine indica (ELEIN). Briefly: Post-emergence field trial, herbicidal activity on ELEIN. To be noted: 21 DAT. The protocol:
as §1, §2, §3, §4, §5, §6
(§8) Herbicide A-1 (342 g/l) and imazethapyr-ammonium were, together with addition of 0.5% MSO (methylated seed oil) as adjuvant, formulated in water as distribution medium (water volume […]) and sprayed with commercial flat fan nozzles.

The test system of assay [3] is Amaranthus viridis (AMAVI). Briefly: Post-emergence field trial, herbicidal activity on AMAVI. The settings on record: growth stage 16-18, height 10-15 cm, 20 DAT, 0.5% MSO. The protocol:
as §1, §2, §3, §4, §5, §6, §8

Assay [4] has as its system Portulaca oleracea (POROL). Briefly: Post-emergence field trial, herbicidal activity on POROL. To be noted: growth stage 14-16, height 5-10 cm, 20 DAT, 0.5% MSO. The protocol: as §1, §2, §3, §4, §5, §7
For assay [5], the system named is Brachiaria plantaginea (BRAPL). Briefly: Post-emergence field trial, herbicidal activity on BRAPL. To be noted: for % herbicidal activity: Table 2.5, 21 DAT, growth stage 24. The protocol:
as §1, §2, §3, §4, §5, §6, §8

Assay [6] relates to Galinsoga parviflora (GASPA). The experiment in a line: Post-emergence field trial, herbicidal activity on GASPA. The settings on record: Table 2.6, 21 DAT, weed height 15-35 cm. The protocol: as §1, §2, §3, §4, §5, §7
For assay [7], the system named is Amaranthus cruentus (AMACR). The experiment in a line: Post-emergence field trial, herbicidal activity on AMACR. The settings on record: height 20-25 cm, 25 DAT, 0.25 l/ha Dash MSO Max. The protocol:
as §1, §2, §3, §4, §5, §7

The subject of assay [8] is Spermacoce latifolia (BOILF). The experiment in a line: Post-emergence field trial, herbicidal activity on BOILF. The settings on record: 21 DAT. The protocol: as §1, §2, §3, §4, §5, §6, §8
Assay [9] has as its system Euphorbia heterophylla (EPHHL). The experiment in a line: Post-emergence field trial, herbicidal activity on EPHHL. To be noted: 21 DAT. The protocol: as §1, §2, §3, §4, §5, §6, §8
For assay [10], the system named is Digitaria insularis (DIGIN). The experiment in a line: Post-emergence field trial, herbicidal activity on DIGIN. The settings on record: Table 2.4, 21 DAT, weed height 20-40 cm. The protocol: as §1, §2, §3, §4, §5, §7
For another assay, the system named is Ipomoea triloba (IPOTR). Briefly: Post-emergence field trial, herbicidal activity on IPOTR. To be noted: 21 DAT. The protocol: as §1, §2, §3, §4, §5, §6, §8

For the molecule `CCOC(=O)COc1ccccc1Oc1nc(-n2c(=O)cc(C(F)(F)F)n(C)c2=O)c(F)cc1Cl` [Herbicide A-1, ethyl 2-[2-[[3-chloro-5-fluoro-6-[3-methyl-2,6-dioxo-4-(trifluoromethyl)pyrimidin-1-yl]-2-pyridyl]oxy]phenoxy]acetate], the “% herbicidal activity A-1” value worked out at 91% in [1] (AMACH, height 20-25 cm, A-1 25 g ai/ha solo, 25 DAT, 0.25 l/ha Dash MSO Max); 45% in the assay on Eleusine indica (ELEIN) (ELEIN, height 20-25 cm, A-1 25 g ai/ha solo, 0.5% MSO); 69% in assay [3] (A-1 25 g ai/ha solo); 84% in [3] (A-1 50 g ai/ha solo); 58% in [4] (A-1 50 g ai/ha solo); 73% in assay [5] (BRAPL, growth stage 21-25, height 10-15 cm, A-1 50 g ai/ha solo, 20 DAT, 0.5% MSO). For the same molecule, the “% herbicidal activity A-1” value turned out to be 93% in [7] (A-1 25 g ai/ha solo); 81% in assay [8] (BOILF, growth stage 40, A-1 25 g ai/ha solo, 0.5% MSO); 86% in [9] (EPHHL, growth stage 35, A-1 50 g ai/ha solo, 0.5% MSO); 61% with Ipomoea triloba (IPOTR) (IPOTR, growth stage 35, A-1 25 g ai/ha solo, 0.5% MSO). Further, the “% herbicidal activity” value is reported as 85% in assay [1] (Table 3.1, 21 DAT, A-1 50 g ai/ha alone, growth stage 35); 50% in assay [2] (A-1 50 g ai/ha alone); 87% with Eleusine indica (ELEIN) (Table 2.7, A-1 50 g ai/ha alone, growth stage 35-61, height 3-5 cm); 55% with Eleusine indica (ELEIN) (Table 3.2, A-1 50 g ai/ha alone, weed height 20-25 cm); 83% in [5] (A-1 25 g ai/ha alone); 93% in assay [5] (A-1 50 g ai/ha alone). Also, the “% herbicidal activity” value in assay [6] (A-1 50 g ai/ha alone) is reported as 92%; in [8] (Table 3.1, A-1 25 g ai/ha alone, growth stage 40), 81%; in assay [9] (Table 2.6, A-1 50 g ai/ha alone, weed height 15-35 cm), 96%; in assay [9] (Table 2.7, A-1 25 g ai/ha alone, growth stage 18-65, height 5-15 cm), 94%; in assay [10] (A-1 50 g ai/ha alone), 38%; in the assay with Ipomoea triloba (IPOTR) (Table 3.1, A-1 25 g ai/ha alone, growth stage 35), 61%.

With `CCc1cnc(C2=NC(C)(C(C)C)C(=O)N2)c(C(=O)O)c1.N` (stereo not drawn) [Herbicide B-2, imazethapyr-ammonium, reference compound], the “% herbicidal activity B-2” value in assay [1] (AMACH, height 20-25 cm, B-2 100 g ai/ha solo, 25 DAT, 0.25 l/ha Dash MSO Max) came to 7%; with Eleusine indica (ELEIN) (ELEIN, height 20-25 cm, B-2 100 g ai/ha solo, 0.5% MSO), 0%; in assay [3] (B-2 100 g ai/ha solo), 22%; in [4] (B-2 100 g ai/ha solo) it was 30%; in assay [5] (BRAPL, growth stage 21-25, height 10-15 cm, B-2 100 g ai/ha solo, 20 DAT, 0.5% MSO), 0%; in assay [7] (B-2 100 g ai/ha solo) it was 58%. The “% herbicidal activity B-2” value in [8] (BOILF, growth stage 40, B-2 100 g ai/ha solo, 0.5% MSO) is 23%; in assay [9] (EPHHL, growth stage 35, B-2 100 g ai/ha solo, 0.5% MSO), 10%; in the assay on Ipomoea triloba (IPOTR) (IPOTR, growth stage 35, B-2 100 g ai/ha solo, 0.5% MSO) it was 22%. For the same molecule, the “% herbicidal activity” value was 0% in assay [2] (B-2 100 g ai/ha alone); 10% in the assay on Eleusine indica (ELEIN) (Table 2.7, B-2 100 g ai/ha alone, growth stage 35-61, height 3-5 cm); 0% in assay [5] (B-2 100 g ai/ha alone, listed as with A-1 25 g ai/ha); 0% in assay [5] (B-2 100 g ai/ha alone, listed as with A-1 50 g ai/ha); 0% in [6] (B-2 100 g ai/ha alone); 0% in assay [9] (Table 2.6, B-2 100 g ai/ha alone, weed height 15-35 cm). Moreover, the “% herbicidal activity” value was found to be 20% in assay [9] (Table 2.7, B-2 100 g ai/ha alone, growth stage 18-65, height 5-15 cm) and 13% in assay [10] (B-2 100 g ai/ha alone).
